Test results published in patent US9945845B2, “Methods of screening using amphibians” (priority 2009, dated 2018).

Test system: blood vessel development and/or lymphangiogenesis in Xenopus embryos
Assay type: in vivo, Xenopus laevis
In short: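 Albino Xenopus embryos treated at 20 μM final (from 10-mM DMSO stocks) in screening medium, 7 per well, from stage 31 (37 hpf) to stage 35/36 (50 hpf) or 42 (80 hpf). Fixed in 4% paraformaldehyde and scored by whole-mount in situ hybridization: vasculogenesis and intersomitic vein angiogenesis at stage 35/36, lymph vessel development at stage 42.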

`Oc1cc(-c2ccccc2)nc2nc(Cl)ccc12` [7-Chloro-4-hydroxy-2-phenyl-1,8-naphthyridine] was tested, and the “blood vessel development phenotype (apj expression, in words)” value (20 μM from stage 31, fixed at stage 35/36) was “interfered not only with ISV angiogenesis but also with VVN assembly”, the “lymph vessel development phenotype (vegfr3 expression, in words)” value (20 μM from stage 31, fixed at stage 42) was “stunted, disorganized lymphatic vessels arising from the ALS and ALH” and the ALH phenotype (anterior lymph heart, Xenopus embryos) was “dysplastic”. The ALS phenotype (anterior lymph sac, Xenopus embryos) was “stunted”, the ISV phenotype (intersomitic vessels, Xenopus embryos) was “stunted” and the PCV phenotype (posterior cardinal vein, Xenopus embryos) was “normal”. For the same compound, the PLV phenotype (posterior lymph vessels, Xenopus embryos) was “hypoplastic” and the VVN phenotype (vitelline vein network, Xenopus embryos) was “hypoplastic”.
